From patent US20260347373A1, “HETEROCYCLIC COMPOUNDS, COMPOSITIONS THEREOF, AND METHODS OF TREATMENT THEREWITH” (BeOne Medicines I GmbH, priority 2023, published 2026)

The compounds below were run against WT KRAS (Homo sapiens, UniProt P01116) (assay: KRAS WT Probe Displacement Assay (TR-FRET, GDP-loaded)). Settings: KRAS WT, read-out: KRAS^WT Probe Displacement Assay IC50.
Format: binding
Source text: (§1) The synthetic routes of probe 1 and 2, which have been disclosed in PCT/CN2022/070676, are hereby incorporated herein.

Sequence of WT KRAS (P01116 1-188 isoform P01116-2): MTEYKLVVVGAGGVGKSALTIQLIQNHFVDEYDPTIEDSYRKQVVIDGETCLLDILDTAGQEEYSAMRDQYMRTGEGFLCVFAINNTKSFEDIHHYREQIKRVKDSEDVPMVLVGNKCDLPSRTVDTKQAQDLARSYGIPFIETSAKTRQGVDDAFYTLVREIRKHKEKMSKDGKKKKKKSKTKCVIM

`COC1CN(CC2(COc3nc4c5c(nc(-c6cc(N)cc(C)c6C(F)(F)F)c(F)c5n3)OCC[C@@H]3[C@@H]5CC[C@H](CN43)N5)CC2)CC1F` (single isomer, unassigned) [Example 186] was tested. Which IC50 did it give?
The IC50 was 3 to 1000 nM.

For `Cc1cc(N)cc(-c2nc3c4c(nc(OC[C@@]56C[C@H](F)CN5C[C@H](F)C6)nc4c2F)N2C[C@H]4CC[C@H](N4)[C@H]2CCO3)c1C(F)(F)F` [Example 213, 3-((6aR,7S,10R)-13-(((2R,6S,7as)-2,6-difluorotetrahydro-1H-pyrrolizin-7a(5H)-yl)methoxy)-1-fluoro-5,6,6a,7,8,9,10,11-octahydro-4-oxa-3,11a,12,14,15-pentaaza-7,10-methanocyclohepta[4,5]cycloocta[1,2,3-de]naphthalen-2-yl)-5-methyl-4-(trifluoromethyl)aniline], which IC50 is on record?
Its IC50 is 3 to 1000 nM.

How did the IC50 turn out when `Cc1cc(N)cc(-c2nc3c4c(nc(OCC5(CN6CCC7(C6)CC7(F)F)CC5)nc4c2F)N2C[C@H]4CC[C@H](N4)[C@H]2CCO3)c1C(F)(F)F` (single isomer, unassigned) [Example 139] was run?
The IC50 was 3 to 1000 nM.

Which IC50 does the source give for `Cc1cc(N)cc(-c2nc3c4c(nc(OCC5(C)CN(C)CC/C5=C\F)nc4c2F)N2C[C@H]4CC[C@H](N4)[C@H]2CCO3)c1C(F)(F)F` (single isomer, unassigned) [Example 237] here?
Its IC50 is 0.3 to 3 nM.

How did the IC50 turn out when `Cc1cc(N)cc(-c2nc3c4c(nc(OCC5(C)CN(CC6CC6)CC/C5=C\F)nc4c2F)N2C[C@H]4CC[C@H](N4)[C@H]2CCO3)c1C(F)(F)F` (single isomer, unassigned) [Example 239] was run?
The IC50 was 0.3 to 3 nM.

How did the IC50 turn out when `Cc1cc(N)cc(-c2nc3c4c(nc(OCC5(CN6CC7CC7C6)CC5(F)F)nc4c2F)N2C[C@H]4CC[C@H](N4)[C@H]2CCO3)c1C(F)(F)F` (single isomer, unassigned) [Example 29] was run?
The IC50 was 0.3 to 3 nM.

For `Cc1cc(N)cc(-c2nc3c4c(nc(OC[C@]5(CN(C)C)CC5(F)F)nc4c2F)N2C[C@H]4CC[C@H](N4)[C@H]2CC(C)O3)c1C(F)(F)F` (single isomer, unassigned) [Example 249], which IC50 is on record?
Its IC50 is 3 to 1000 nM.

Each compound was assayed against KRAS G12D (Homo sapiens, UniProt P01116, G12D) (assay: KRAS G12D Probe Displacement Assay (TR-FRET, GDP-loaded)). Settings: KRAS G12D, read-out: KRAS^G12D Probe Displacement Assay IC50.
Sequence of KRAS G12D (P01116 1-188 isoform P01116-2 G12D): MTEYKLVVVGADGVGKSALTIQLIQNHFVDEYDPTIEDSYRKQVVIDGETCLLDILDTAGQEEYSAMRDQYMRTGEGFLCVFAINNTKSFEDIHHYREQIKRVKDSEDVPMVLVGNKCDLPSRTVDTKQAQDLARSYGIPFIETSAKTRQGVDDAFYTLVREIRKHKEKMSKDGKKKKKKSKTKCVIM
Format: binding
Source text: as §1

For `COC1CN(CC2(COc3nc4c5c(nc(-c6cc(N)cc(C)c6C(F)(F)F)c(F)c5n3)OCC[C@@H]3[C@@H]5CC[C@H](CN43)N5)CC2)CC1F` (single isomer, unassigned) [Example 186], which IC50 is on record?
The IC50 was less than 0.3 nM.

Which IC50 does the source give for `Cc1cc(N)cc(-c2nc3c4c(nc(OC[C@@]56C[C@H](F)CN5C[C@H](F)C6)nc4c2F)N2C[C@H]4CC[C@H](N4)[C@H]2CCO3)c1C(F)(F)F` [Example 213, 3-((6aR,7S,10R)-13-(((2R,6S,7as)-2,6-difluorotetrahydro-1H-pyrrolizin-7a(5H)-yl)methoxy)-1-fluoro-5,6,6a,7,8,9,10,11-octahydro-4-oxa-3,11a,12,14,15-pentaaza-7,10-methanocyclohepta[4,5]cycloocta[1,2,3-de]naphthalen-2-yl)-5-methyl-4-(trifluoromethyl)aniline] here?
Its IC50 is 0.3 to 3 nM.

`Cc1cc(N)cc(-c2nc3c4c(nc(O[C@H]5COC[C@@H]5N(C)C)nc4c2F)N2C[C@H]4CC[C@H](N4)[C@H]2CCO3)c1C(F)(F)F` [Example 40, (3S,4R)-4-(((6aR,7S,10R)-2-(5-amino-3-methyl-2-(trifluoromethyl)phenyl)-1-fluoro-5,6,6a,7,8,9,10,11-octahydro-4-oxa-3,11a,12,14,15-pentaaza-7,10-methanocyclohepta[4,5]cycloocta [1,2,3-de]naphthalen-13-yl)oxy)-N,N-dimethyltetrahydrofuran-3-amine] was tested. Which IC50 did it give?
Its IC50 is 3 to 1000 nM.

With `CO[C@H]1CCN(C)[C@@H]1C(C)Oc1nc2c3c(nc(-c4cc(N)cc(C)c4C(F)(F)F)c(F)c3n1)OCC[C@@H]1[C@@H]3CC[C@H](CN21)N3` (single isomer, unassigned) [Example 76] as the compound, how does the IC50 read?
Its IC50 is 0.3 to 3 nM.

Which IC50 does the source give for `Cc1cc(N)cc(-c2nc3c4c(nc(O[C@@H]5COCC[C@H]5N(C)C)nc4c2F)N2C[C@H]4CC[C@H](N4)[C@H]2CCO3)c1C(F)(F)F` [Example 10, (3S,4R)-3-(((6aR,7S,10R)-2-(5-amino-3-methyl-2-(trifluoromethyl)phenyl)-1-fluoro-5,6,6a,7,8,9,10,11-octahydro-4-oxa-3,11a,12,14,15-pentaaza-7,10-methanocyclohepta[4,5]cycloocta [1,2,3-de]naphthalen-13-yl)oxy)-N,N-dimethyltetrahydro-2H-pyran-4-amine] here?
Its IC50 is 3 to 1000 nM.

`CO[C@@H]1C[C@@H](C(C)Oc2nc3c4c(nc(-c5cc(N)cc(C)c5C(F)(F)F)c(F)c4n2)OCC[C@@H]2[C@@H]4CC[C@H](CN32)N4)N(C)C1` (single isomer, unassigned) [Example 145] was tested. Which IC50 did it give?
The IC50 was 0.3 to 3 nM.

For `Cc1cc(N)cc(-c2nc3c4c(nc(OCC5(C)COCC5N(C)C)nc4c2F)N2C[C@H]4CC[C@H](N4)[C@H]2CCO3)c1C(F)(F)F` (mixture of isomers) [Example 15, 4-((((6aR,7S,10R)-2-(5-amino-3-methyl-2-(trifluoromethyl)phenyl)-1-fluoro-5,6,6a,7,8,9,10,11-octahydro-4-oxa-3,11a,12,14,15-pentaaza-7,10-methanocyclohepta[4,5]cycloocta [1,2,3-de]naphthalen-13-yl)oxy)methyl)-N,N,4-trimethyltetrahydrofuran-3-amine], which IC50 is on record?
The IC50 was 0.3 to 3 nM.

How did the IC50 turn out when `Cc1cc(N)cc(-c2nc3c4c(nc(O[C@H]5CCOC[C@@H]5N(C)C)nc4c2F)N2C[C@H]4CC[C@H](N4)[C@H]2CCO3)c1C(F)(F)F` [Example 9, (3S,4S)-4-(((6aR,7S,10R)-2-(5-amino-3-methyl-2-(trifluoromethyl)phenyl)-1-fluoro-5,6,6a,7,8,9,10,11-octahydro-4-oxa-3,11a,12,14,15-pentaaza-7,10-methanocyclohepta[4,5]cycloocta [1,2,3-de]naphthalen-13-yl)oxy)-N,N-dimethyltetrahydro-2H-pyran-3-amine] was run?
The IC50 was 3 to 1000 nM.

How did the IC50 turn out when `Cc1cc(N)cc(-c2nc3c4c(nc(OC[C@H]5COC[C@@H]5N(C)C)nc4c2F)N2C[C@H]4CC[C@H](N4)[C@H]2CCO3)c1C(F)(F)F` [Example 14, (3R,4R)-4-((((6aR,7S,10R)-2-(5-amino-3-methyl-2-(trifluoromethyl)phenyl)-1-fluoro-5,6,6a,7,8,9,10,11-octahydro-4-oxa-3,11a,12,14,15-pentaaza-7,10-methanocyclohepta[4,5]cycloocta [1,2,3-de]naphthalen-13-yl)oxy)methyl)-N,N-dimethyltetrahydrofuran-3-amine] was run?
The IC50 was 3 to 1000 nM.

With `COC1CN(C)CC(C)(COc2nc3c4c(nc(-c5cc(N)cc(C)c5C(F)(F)F)c(F)c4n2)OCC[C@@H]2[C@@H]4CC[C@H](CN32)N4)C1` (stereo partly drawn) [Example 127, 3-((6aR,7S,10R)-1-fluoro-13-((5-methoxy-1,3-dimethylpiperidin-3-yl)methoxy)-5,6,6a,7,8,9,10,11-octahydro-4-oxa-3,11a,12,14,15-pentaaza-7,10-methanocyclohepta[4,5]cycloocta[1,2,3-de]naphthalen-2-yl)-5-methyl-4-(trifluoromethyl)aniline] as the compound, how does the IC50 read?
Its IC50 is less than 0.3 nM.

For `CCN1CC(F)CC(C)(COc2nc3c4c(nc(-c5cc(N)cc(C)c5C(F)(F)F)c(F)c4n2)OCC[C@@H]2[C@@H]4CC[C@H](CN32)N4)C1` (stereo partly drawn) [Example 203, 3-((6aR,7S,10R)-13-((1-ethyl-5-fluoro-3-methylpiperidin-3-yl)methoxy)-1-fluoro-5,6,6a,7,8,9,10,11-octahydro-4-oxa-3,11a,12,14,15-pentaaza-7,10-methanocyclohepta[4,5]cycloocta[1,2,3-de]naphthalen-2-yl)-5-methyl-4-(trifluoromethyl)aniline], which IC50 is on record?
Its IC50 is 0.3 to 3 nM.

With `Cc1cc(N)cc(-c2nc3c4c(nc(OCC5(CN6CCn7ncnc7C6)CC5)nc4c2F)N2C[C@H]4CC[C@H](N4)[C@H]2CCO3)c1C(F)(F)F` [Example 109, 3-((6aR,7S,10R)-13-((1-((5,6-dihydro-[1,2,4]triazolo[1,5-a]pyrazin-7(8H)-yl)methyl)cyclopropyl)methoxy)-1-fluoro-5,6,6a,7,8,9,10,11-octahydro-4-oxa-3,11a, 12,14,15-pentaaza-7,10-methanocyclohepta [4,5]cycloocta [1,2,3-de]naphthalen-2-yl)-5-methyl-4-(trifluoromethyl)aniline] as the compound, how does the IC50 read?
Its IC50 is 3 to 1000 nM.

With `COC1CN(C)CC(C)(COc2nc3c4c(nc(-c5cc(N)cc(C)c5C(F)(F)F)c(F)c4n2)OCC[C@@H]2[C@@H]4CC[C@H](CN32)N4)C1` (stereo partly drawn) [Example 129, 3-((6aR,7S,10R)-1-fluoro-13-((5-methoxy-1,3-dimethylpiperidin-3-yl)methoxy)-5,6,6a,7,8,9,10,11-octahydro-4-oxa-3,11a,12,14,15-pentaaza-7,10-methanocyclohepta[4,5]cycloocta[1,2,3-de]naphthalen-2-yl)-5-methyl-4-(trifluoromethyl)aniline] as the compound, how does the IC50 read?
The IC50 was 3 to 1000 nM.

For `Cc1cc(N)cc(-c2nc3c4c(nc(O[C@H]5COCC[C@H]5N(C)C)nc4c2F)N2C[C@H]4CC[C@H](N4)[C@H]2CCO3)c1C(F)(F)F` [Example 12, (3R,4R)-3-(((6aR,7S,10R)-2-(5-amino-3-methyl-2-(trifluoromethyl)phenyl)-1-fluoro-5,6,6a,7,8,9,10,11-octahydro-4-oxa-3,11a,12,14,15-pentaaza-7,10-methanocyclohepta[4,5]cycloocta [1,2,3-de]naphthalen-13-yl)oxy)-N,N-dimethyltetrahydro-2H-pyran-4-amine], which IC50 is on record?
The IC50 was 3 to 1000 nM.

With `Cc1cc(N)cc(-c2nc3c4c(nc(OCC5(CN6CCCC6CO)CC5)nc4c2F)N2C[C@H]4CC[C@H](N4)[C@H]2CCO3)c1C(F)(F)F` (single isomer, unassigned) [Example 125] as the compound, how does the IC50 read?
The IC50 was less than 0.3 nM.

With `Cc1cc(N)cc(-c2nc3c4c(nc(O[C@@H]5CCOC[C@H]5N(C)C)nc4c2F)N2C[C@H]4CC[C@H](N4)[C@H]2CCO3)c1C(F)(F)F` [Example 7] as the compound, how does the IC50 read?
Its IC50 is 3 to 1000 nM.

How did the IC50 turn out when `Cc1cc(N)cc(-c2nc3c4c(nc(O[C@H]5CCOC[C@H]5N(C)C)nc4c2F)N2C[C@H]4CC[C@H](N4)[C@H]2CCO3)c1C(F)(F)F` [Example 11, (3R,4S)-4-(((6aR,7S,10R)-2-(5-amino-3-methyl-2-(trifluoromethyl)phenyl)-1-fluoro-5,6,6a,7,8,9,10,11-octahydro-4-oxa-3,11a,12,14,15-pentaaza-7,10-methanocyclohepta[4,5]cycloocta [1,2,3-de]naphthalen-13-yl)oxy)-N,N-dimethyltetrahydro-2H-pyran-3-amine] was run?
Its IC50 is 3 to 1000 nM.

Which IC50 does the source give for `Cc1cc(N)cc(-c2nc3c4c(nc(O[C@H]5COC[C@H]5N(C)C)nc4c2F)N2C[C@H]4CC[C@H](N4)[C@H]2CCO3)c1C(F)(F)F` [Example 39, (3R,4R)-4-(((6aR,7S,10R)-2-(5-amino-3-methyl-2-(trifluoromethyl)phenyl)-1-fluoro-5,6,6a,7,8,9,10,11-octahydro-4-oxa-3,11a,12,14,15-pentaaza-7,10-methanocyclohepta[4,5]cycloocta [1,2,3-de]naphthalen-13-yl)oxy)-N,N-dimethyltetrahydrofuran-3-amine] here?
Its IC50 is 3 to 1000 nM.

Same assay, conditions: KRAS^G12D Probe Displacement Assay IC50, KRAS G12D

For `COC1CN(CC2(COc3nc4c5c(nc(-c6cc(N)cc(C)c6C(F)(F)F)c(F)c5n3)OCC[C@@H]3[C@@H]5CC[C@H](CN43)N5)CC2(F)F)C1` (single isomer, unassigned) [Example 21], which IC50 is on record?
Its IC50 is 0.3 to 3 nM.
